From patent publication US9902702B2, “Spirocycloheptanes as inhibitors of rock” (BRISTOL-MYERS SQUIBB COMPANY, priority 2014, dated 2018) come the findings set out here.

By IC50 is commonly meant the concentration needed to halve the response being measured.

Chain of ROCK2 (O75116 whole entry, species assumed): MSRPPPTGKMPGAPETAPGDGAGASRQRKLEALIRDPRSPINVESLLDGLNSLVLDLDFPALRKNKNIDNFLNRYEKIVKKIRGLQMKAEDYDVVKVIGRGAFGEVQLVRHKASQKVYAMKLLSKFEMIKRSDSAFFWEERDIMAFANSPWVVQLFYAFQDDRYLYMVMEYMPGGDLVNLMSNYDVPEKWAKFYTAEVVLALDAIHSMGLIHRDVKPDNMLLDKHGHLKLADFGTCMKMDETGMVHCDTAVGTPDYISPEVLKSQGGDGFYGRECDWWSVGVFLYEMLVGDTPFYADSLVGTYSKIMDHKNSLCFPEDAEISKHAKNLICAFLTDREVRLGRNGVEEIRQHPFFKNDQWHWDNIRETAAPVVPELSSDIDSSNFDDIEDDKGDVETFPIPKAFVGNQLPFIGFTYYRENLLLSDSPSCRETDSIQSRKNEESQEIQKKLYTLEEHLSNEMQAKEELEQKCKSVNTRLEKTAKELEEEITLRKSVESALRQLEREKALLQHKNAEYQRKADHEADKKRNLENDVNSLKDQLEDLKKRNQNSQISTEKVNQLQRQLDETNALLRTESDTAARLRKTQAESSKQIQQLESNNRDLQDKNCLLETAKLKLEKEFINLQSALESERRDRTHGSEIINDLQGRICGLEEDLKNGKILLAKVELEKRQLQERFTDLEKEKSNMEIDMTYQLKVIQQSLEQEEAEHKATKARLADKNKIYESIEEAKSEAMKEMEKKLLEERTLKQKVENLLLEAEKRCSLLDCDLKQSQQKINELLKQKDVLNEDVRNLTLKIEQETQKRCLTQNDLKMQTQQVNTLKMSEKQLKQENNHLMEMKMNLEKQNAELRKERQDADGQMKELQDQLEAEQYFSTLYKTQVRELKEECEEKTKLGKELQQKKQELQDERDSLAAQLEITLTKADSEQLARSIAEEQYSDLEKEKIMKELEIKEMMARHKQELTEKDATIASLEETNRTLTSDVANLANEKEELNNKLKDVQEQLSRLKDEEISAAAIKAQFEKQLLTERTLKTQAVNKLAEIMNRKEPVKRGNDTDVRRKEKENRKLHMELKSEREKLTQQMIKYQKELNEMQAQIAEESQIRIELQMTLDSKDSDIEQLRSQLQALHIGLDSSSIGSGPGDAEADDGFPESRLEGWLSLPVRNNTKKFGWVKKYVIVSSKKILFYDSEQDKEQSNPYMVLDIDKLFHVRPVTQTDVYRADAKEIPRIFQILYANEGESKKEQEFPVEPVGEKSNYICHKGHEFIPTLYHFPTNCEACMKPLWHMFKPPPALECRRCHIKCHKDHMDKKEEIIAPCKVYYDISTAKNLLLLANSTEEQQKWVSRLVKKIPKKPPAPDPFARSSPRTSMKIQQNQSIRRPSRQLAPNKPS

The target in the assay is ROCK2 (Homo sapiens, UniProt O75116). The assay is described as follows: ROCK assay: phosphorylation of FITC peptide substrate, LABCHIP 3000 mobility shift. It is filed as biochemical. The following applies: 5 μM ATP, 1.5 μM peptide substrate; read-out: ROCK2 Activity (ROCK IC50 range). As for the experimental part:
The effectiveness of compounds of the present invention as ROCK inhibitors can be determined in a 30 μL assay containing 20 mM HEPES, pH 7.5, 20 mM MgCl2, 0.015% Brij-35, 4 mM DTT, 5 μM ATP and 1.5 μM peptide substrate (FITC-AHA-AKRRRLSSLRA-OH). Compounds were dissolved in DMSO so that the final concentration of DMSO was <2%, and the reaction was initiated with Rho kinase variants. After incubation, the reaction was terminated by the addition of EDTA and the phosphorylated and non-phosphorylated peptides separated using a LABCHIP® 3000 Reader (Caliper Life Sciences). […] Compounds were tested in dose-response format, and the inhibition of kinase activity was calculated at each concentration of compound. The inhibition data were fit using a curve-fitting program to determine the IC50; i.e., the concentration of compound required to inhibit 50% of kinase activity.
Representative Examples were tested in the ROCK assay described above and found having ROCK inhibitory activity.
Consider `CC(C)(O)Cn1nc(C(=O)NC2CC3(C2)CC(c2n[nH]c(=O)c4ccccc24)C3)c2ccccc21` (centres unmarked) [Example 11, 1-(2-hydroxy-2-methylpropyl)-N-[6-(4-oxo-3,4-dihydrophthalazin-1-yl)spiro[3.3]heptan-2-yl]-1H-indazole-3-carboxamide], for which the half-maximal inhibitory concentration (IC50) is 15.1 to 100 nM.

For `O=C(NC1CC2(C1)CC(c1n[nH]c(=O)c3ccccc13)C2)c1cnn(-c2ccccc2)c1` (centres unmarked) [Example 12, N-[6-(4-oxo-3,4-dihydrophthalazin-1-yl)spiro[3.3]heptan-2-yl]-1-phenyl-1H-pyrazole-4-carboxamide], the half-inhibitory concentration (IC50) fell in the range of 15.1 to 100 nM.

Turning to `Cc1c(C(=O)NC2CC3(C2)CC(c2n[nH]c(=O)c4ccccc24)C3)cnn1-c1ccccc1` (centres unmarked) [Example 13, 5-methyl-N-[6-(4-oxo-3,4-dihydrophthalazin-1-yl)spiro[3.3]heptan-2-yl]-1-phenyl-1H-pyrazole-4-carboxamide], the IC50 was in the range of 2.01 to 5 nM.

In the case of `O=C(N[C@H]1CC2(C1)C[C@H](c1n[nH]c(=O)c3ccccc31)C2)c1ccn(CC(F)F)n1` (stereo partly drawn) [Example 19, 1-(2,2-Difluoroethyl)-N-[(aR)-6-(4-oxo-3,4-dihydrophthalazin-1-yl)spiro[3.3]heptan-2-yl]-1H-pyrazole-3-carboxamide], the IC50 was 100 to 2100 nM.

On to `Cc1c(C(=O)NC2CC3(C2)CC(c2n[nH]c(=O)c4ccccc24)C3)cnn1-c1ccccc1` [Example 20, 5-methyl-N-[(aR)-6-(4-oxo-3,4-dihydrophthalazin-1-yl)spiro[3.3]heptan-2-yl]-1-phenyl-1H-pyrazole-4-carboxamide], for which the IC50 fell in the range of 0.2 to 2 nM.

Regarding `O=C(NC1CC2(C1)CC(c1n[nH]c(=O)c3ccccc13)C2)c1ccn(CCC(F)(F)F)n1` [Example 22, N-[(aR)-6-(4-oxo-3,4-dihydrophthalazin-1-yl)spiro[3.3]heptan-2-yl]-1-(3,3,3-trifluoropropyl)-1H-pyrazole-3-carboxamide], the IC50 is 5.1 to 15 nM.

On to `O=C(NC1CC2(C1)CC(c1n[nH]c(=O)c3ccccc13)C2)c1ccn(CC2CC2)n1` [Example 23, 1-(cyclopropylmethyl)-N-[(aR)-6-(4-oxo-3,4-dihydrophthalazin-1-yl)spiro[3.3]heptan-2-yl]-1H-pyrazole-3-carboxamide], for which the IC50 is 5.1 to 15 nM.

Take `Cn1nc(C2CC2)cc1C(=O)NC1CC2(C1)CC(c1n[nH]c(=O)c3ccccc13)C2` [Example 24, 3-cyclopropyl-1-methyl-N-[(aR)-6-(4-oxo-3,4-dihydrophthalazin-1-yl)spiro[3.3]heptan-2-yl]-1H-pyrazole-5-carboxamide]: the half-maximal inhibitory concentration (IC50) lay in the range of 2.01 to 5 nM.

Take `Cn1nc(C(F)(F)F)cc1C(=O)NC1CC2(C1)CC(c1n[nH]c(=O)c3ccccc13)C2` [Example 25, 1-methyl-N-[(aR)-6-(4-oxo-3,4-dihydrophthalazin-1-yl)spiro[3.3]heptan-2-yl]-3-(trifluoromethyl)-1H-pyrazole-5-carboxamide]: the IC50 lay within 5.1 to 15 nM.

For the compound `Cn1nc(C(=O)NC2CC3(C2)CC(c2n[nH]c(=O)c4ccccc24)C3)cc1C1CC1` [Example 26, 5-cyclopropyl-1-methyl-N-[(aR)-6-(4-oxo-3,4-dihydrophthalazin-1-yl)spiro[3.3]heptan-2-yl]-1H-pyrazole-3-carboxamide], the concentration for half-maximal inhibition (IC50) was in the range of 2.01 to 5 nM.

As for `O=C(NC1CC2(C1)CC(c1n[nH]c(=O)c3ccccc13)C2)c1cnn(C2CC2)c1` [Example 27, 1-cyclopropyl-N-[(aR)-6-(4-oxo-3,4-dihydrophthalazin-1-yl)spiro[3.3]heptan-2-yl]-1H-pyrazole-4-carboxamide], the IC50 fell in the range of 5.1 to 15 nM.

For the compound `Cn1nc(C(=O)NC2CC3(C2)CC(c2n[nH]c(=O)c4ccccc24)C3)cc1OC(F)F` [Example 28, 5-(difluoromethoxy)-1-methyl-N-[(aR)-6-(4-oxo-3,4-dihydrophthalazin-1-yl)spiro[3.3]heptan-2-yl]-1H-pyrazole-3-carboxamide], the IC50 fell in the range of 15.1 to 100 nM.

For the compound `O=C(NC1CC2(C1)CC(c1n[nH]c(=O)c3ccccc13)C2)c1ccn(C2CC2)n1` [Example 29, 1-cyclopropyl-N-[(aR)-6-(4-oxo-3,4-dihydrophthalazin-1-yl)spiro[3.3]heptan-2-yl]-1H-pyrazole-3-carboxamide], the IC50 lay within 5.1 to 15 nM.

Consider `CC(C)(O)Cn1ccc(C(=O)NC2CC3(C2)CC(c2n[nH]c(=O)c4ccccc24)C3)n1` [Example 30, 1-(2-hydroxy-2-methylpropyl)-N-[(aR)-6-(4-oxo-3,4-dihydrophthalazin-1-yl)spiro[3.3]heptan-2-yl]-1H-pyrazole-3-carboxamide], for which the IC50 was in the range of 15.1 to 100 nM.

Take `CC(C)(O)Cn1nc(C(=O)NC2CC3(C2)CC(c2n[nH]c(=O)c4ccccc24)C3)c2ccc(F)cc21` [Example 31, 6-fluoro-1-(2-hydroxy-2-methylpropyl)-N-[(aR)-6-(4-oxo-3,4-dihydrophthalazin-1-yl)spiro[3.3]heptan-2-yl]-1H-indazole-3-carboxamide]: the IC50 was 2.01 to 5 nM.

With `Cc1nn(CC(F)F)cc1C(=O)NC1CC2(C1)CC(c1n[nH]c(=O)c3ccccc13)C2` [Example 32, 1-(2,2-difluoroethyl)-3-methyl-N-[(aR)-6-(4-oxo-3,4-dihydrophthalazin-1-yl)spiro[3.3]heptan-2-yl]-1H-pyrazole-4-carboxamide], the IC50 was in the range of 2.01 to 5 nM.

With `Cc1nc(N2CCCCC2)sc1C(=O)N[C@H]1CC2(C1)C[C@H](c1n[nH]c(=O)c3ccccc31)C2` (stereo partly drawn) [Example 33, 4-Methyl-N-((aR)-6-(4-oxo-3,4-dihydrophthalazin-1-yl)spiro[3.3]heptan-2-yl)-2-(piperidin-1-yl)thiazole-5-carboxamide], the IC50 lay in the range of 0.2 to 2 nM.

With `Cc1nc(N2CCOCC2)sc1C(=O)NC1CC2(C1)CC(c1n[nH]c(=O)c3ccccc13)C2` [Example 34, 4-methyl-2-(morpholin-4-yl)-N-[(aR)-6-(4-oxo-3,4-dihydrophthalazin-1-yl)spiro[3.3]heptan-2-yl]-1,3-thiazole-5-carboxamide], the IC50 lay in the range of 15.1 to 100 nM.

For the compound `Cc1nc(N2CCCC2)sc1C(=O)NC1CC2(C1)CC(c1n[nH]c(=O)c3ccccc13)C2` [Example 35, 4-methyl-N-[(aR)-6-(4-oxo-3,4-dihydrophthalazin-1-yl)spiro[3.3]heptan-2-yl]-2-(pyrrolidin-1-yl)-1,3-thiazole-5-carboxamide], the 50% inhibitory concentration (IC50) was 5.1 to 15 nM.

As for `Cc1nc(N2CCC(F)C2)sc1C(=O)NC1CC2(C1)CC(c1n[nH]c(=O)c3ccccc13)C2` [Example 36, 2-[(3S)-3-fluoropyrrolidin-1-yl]-4-methyl-N-[(aR)-6-(4-oxo-3,4-dihydrophthalazin-1-y)spiro[3.3]heptan-2-yl]-1,3-thiazole-5-carboxamide], the IC50 lay within 2.01 to 5 nM.

With `Cc1nc(N2CCC(F)C2)sc1C(=O)NC1CC2(C1)CC(c1n[nH]c(=O)c3ccccc13)C2` [Example 37, 2-[(3R)-3-fluoropyrrolidin-1-yl]-4-methyl-N-[(aR)-6-(4-oxo-3,4-dihydrophthalazin-1-yl)spiro[3.3]heptan-2-yl]-1,3-thiazole-5-carboxamide], the IC50 is 5.1 to 15 nM.

For `Cc1nc(N2CCC(C#N)C2)sc1C(=O)NC1CC2(C1)CC(c1n[nH]c(=O)c3ccccc13)C2` [Example 38, 2-[(3S)-3-cyanopyrrolidin-1-yl]-4-methyl-N-[(aR)-6-(4-oxo-3,4-dihydrophthalazin-1-yl)spiro[3.3]heptan-2-yl]-1,3-thiazole-5-carboxamide], the IC50 fell in the range of 5.1 to 15 nM.

For `Cc1nc(N2CCC(C#N)C2)sc1C(=O)NC1CC2(C1)CC(c1n[nH]c(=O)c3ccccc13)C2` [Example 39, 2-[(3R)-3-cyanopyrrolidin-1-yl]-4-methyl-N-[(aR)-6-(4-oxo-3,4-dihydrophthalazin-1-yl)spiro[3.3]heptan-2-yl]-1,3-thiazole-5-carboxamide], the concentration for half-maximal inhibition (IC50) is 5.1 to 15 nM.

As for `Cc1nc(N2CCC3CC32)sc1C(=O)NC1CC2(C1)CC(c1n[nH]c(=O)c3ccccc13)C2` [Example 40, rel-2-[(1S,5R)-2-azabicyclo[3.1.0]hexan-2-yl]-4-methyl-N-[(aR)-6-(4-oxo-3,4-dihydrophthalazin-1-yl)spiro[3.3]heptan-2-yl]-1,3-thiazole-5-carboxamide], the IC50 lay within 2.01 to 5 nM.

On to `Cc1nc(N2CCC(F)(F)C2)sc1C(=O)NC1CC2(C1)CC(c1n[nH]c(=O)c3ccccc13)C2` [Example 41, 2-(3,3-difluoropyrrolidin-1-yl)-4-methyl-N-[(aR)-6-(4-oxo-3,4-dihydrophthalazin-1-yl)spiro[3.3]heptan-2-yl]-1,3-thiazole-5-carboxamide], for which the IC50 was in the range of 2.01 to 5 nM.

In the case of `Cc1nc(NC2CC2)sc1C(=O)NC1CC2(C1)CC(c1n[nH]c(=O)c3ccccc13)C2` [Example 42, 2-(cyclopropylamino)-4-methyl-N-[(aR)-6-(4-oxo-3,4-dihydrophthalazin-1-yl)spiro[3.3]heptan-2-yl]-1,3-thiazole-5-carboxamide], the half-maximal inhibitory concentration (IC50) was 15.1 to 100 nM.

Consider `O=c1[nH]nc([C@H]2CC3(C[C@H](Nc4nnc(-c5ccccc5)s4)C3)C2)c2ccccc12` (stereo partly drawn) [Example 43, 4-((aR)-6-((5-Phenyl-1,3,4-thiadiazol-2-yl)amino)spiro[3.3]heptan-2-yl)phthalazin-1(2H)-one(2H)-one], for which the IC50 is 5.1 to 15 nM.

Regarding `O=c1[nH]nc([C@H]2CC3(C[C@H](Nc4ncc(-c5ccccc5)o4)C3)C2)c2ccccc12` (stereo partly drawn) [Example 44, 4-((aR)-6-((5-phenyloxazol-2-yl)amino)spiro[3.3]heptan-2-yl)phthalazin-1(2H)-one(2H)-one], the half-maximal inhibitory concentration (IC50) is 100 to 2100 nM.

As for `O=c1[nH]nc([C@H]2CC3(C[C@H](Nc4nncc5ccccc45)C3)C2)c2ccccc12` (stereo partly drawn) [Example 45, 4-((aR)-6-(Phthalazin-1-ylamino)spiro[3.3]heptan-2-yl)phthalazin-1(2H)-one(2H)-one], the IC50 fell in the range of 5.1 to 15 nM.
